Laboratory results as given in US4757076A, “Method of inhibiting aromatase” (Eli Lilly and Company, priority 1984, dated 1988).
Where a name gives a salt, the structure may show the parent alone.

Assays:
aromatase = target: T1, aromatase (Rattus norvegicus, UniProt P22443); assay: Aromatase inhibition in the rat ovarian microsome assay (modified isolated rat ovarian microsome method of Brodie et al.); type: biochemical; details: rat ovarian microsomes; substrate (androstenedione) concentration 0.1 μM
T1 construct: ovarian microsomes are obtained from rats treated with pregnant mares serum gonadotropin; from tissue; host or cells: ovarian microsomes of rats treated with pregnant mares serum gonadotropin
T1 sequence (P22443 1-508): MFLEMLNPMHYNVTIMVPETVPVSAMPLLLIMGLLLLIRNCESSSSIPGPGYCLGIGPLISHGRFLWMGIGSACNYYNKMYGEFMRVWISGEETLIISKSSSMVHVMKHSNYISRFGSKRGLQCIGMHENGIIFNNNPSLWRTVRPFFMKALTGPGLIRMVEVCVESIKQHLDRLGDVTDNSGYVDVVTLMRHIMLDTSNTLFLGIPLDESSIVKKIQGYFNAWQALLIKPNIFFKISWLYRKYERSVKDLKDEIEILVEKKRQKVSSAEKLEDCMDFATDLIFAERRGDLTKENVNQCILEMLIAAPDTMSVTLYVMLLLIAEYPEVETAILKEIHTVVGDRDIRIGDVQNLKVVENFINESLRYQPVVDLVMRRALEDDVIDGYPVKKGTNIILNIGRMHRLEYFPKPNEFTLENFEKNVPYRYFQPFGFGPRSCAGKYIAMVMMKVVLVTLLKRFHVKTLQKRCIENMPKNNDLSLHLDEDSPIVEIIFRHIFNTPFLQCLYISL
Experimental: In this test system, ovarian microsomes are obtained from rats treated with pregnant mares serum gonadotropin. Test compounds are added to reaction vials containing 0.1 μM 4-androstene-3,17-dione, 100,000 dpm 1,2[^3 H]-androstenedione, the microsomes and a NADPH generating system. The concentrations of the inhibitors tested ranged between 0.005 and 10 μM.

[1] = system: DMBA-induced mammary tumors; assay: DMBA-Induced Mammary Tumor Inhibition; type: in vivo, female Sprague-Dawley rats; details: 300 ppm in diet (approx. 30 mg/kg/day)
Experimental: Mammary tumors were produced in female Sprague-Dawley rats which were 50-60 days old by the gavage administration of 20 mg of 7,12-dimethylbenz[a]anthracene (DMBA). About six weeks after DMBA administration, the mammary glands were palpated at weekly intervals for the appearance of tumors. Whenever one or more tumors appeared and were measurable in an animal, that animal was selected for experimentation. […] Each control and test group contained 8 animals. The test compound was administered mixed into the food at a concentration of 300 ppm (corresponding to an appropriate daily dose of 30 mg/kg). The experiment included a group of control rats having tumors and were given food without the compound admixed. […] The area of each tumor was calculated by multiplying the shortest and longest diameters of the tumor. The treatment and measurement of animals continued for 5 weeks at which time the final areas of the tumors were determined.

[2] = system: estrogen synthesis (aromatization); assay: Estrogen Synthesis Inhibition in Rats (uterine weight and ovarian steroid concentration); type: in vivo, immature female Wistar rats; details: 7 days; for Mean Uterine Weight: testosterone propionate-treated, significantly different from testosterone-treated control (163.88); for Mean Steroid Concentration, estriol / Mean Steroid Concentration, estradiol: ovary; for Mean Steroid Concentration, estriol: testosterone-treated control 0.68; for Mean Steroid Concentration, estradiol: testosterone-treated control 1.29
Experimental: Test compounds were administered for seven days as a component of the diet. Control animals received diet without the test compound. Beginning on the fourth day of the test, all animals treated with the test compound and one half of the control animals were given a subcutaneous injection of 1.0 mg of testosterone propionate in corn oil. The remaining control animals received only an equivalent volume of corn oil.
After two hours, the animals were killed by decapitation. Uteri were isolated, trimmed of extraneous connective tissue, and weighed.
The ovarian steroids were extracted with 1.5 ml of 9:1 (v/v) toluene/ethanol to which had been added 25 to 100 mcg. each of unlabelled estradiol, estriol, and estrone, and approximately 1000 dpm of [^14 C]-estradiol. The samples were vortexed, centrifuged at 500×g for 10 minutes, and the organic phase was transferred to a conical vial. Two additional extractions were performed on the residue in the same way. The pooled organic extracts were evaporated for subsequent thin-layer chromatography.
Ovarian proteins were precipitated by the addition of 5.0 ml of ethanol to the remaining aqueous phase. After an overnight incubation at 4° C., the samples were centrifuged at 1500×g for 10 minutes. The supernatant was discarded, and the pellet was dissolved in 0.3 N potassium hydroxide.
The organic residue from each above extraction was redissolved in 9:1 (v/v) dichloromethane/methanol. The solution of each sample was applied to separate silica gel thin layer chromatography plates which contained a fluorescent indicator. The plates were developed in the first dimension with 160:38:1.5:0.5 (v/v/v/v) dichloromethane/ethyl acetate/methanol/acetic acid to within 3 cm of the top of the plate. After air-drying, the plate was developed in the second dimension with 180:19:1 (v/v/v) dichloromethane/methanol/ammonium hydroxide. The plate was air-dried and viewed under 254 nm UV light.
The visible spots were marked, and the plates were sprayed with primulin (0.001% in 4:1 v/v acetone/water) according to the method of Wright, J. Chromatography, 59, 220 (1971) which allowed for the identification of additional steroids under 365 nm UV light. The spots were scraped from the plate using a glass wool plugged Pasteur pipet attached to a vacuum line. The steroids were eluted directly into scintillation vials by the addition of 0.2 ml of dichloromethane followed by two washes each of 2.0 ml of methanol. The organic solvent was evaporated and 10.0 ml of scintillation fluid (Beckman Ready Solv-NA) was added to the vials. Samples were analyzed by liquid scintillation spectrometry. Corrections were made based on the recoveries of the [^14 C]-steroid. Steroid concentrations are expressed as femtomoles per milligram protein.

[3] = 30 ppm in feed (approx. 3 mg/kg/day)

Compound | EC50 (aromatase) [nM] | also measured
OC(Cc1ccc(Cl)cc1)(c1ccncc1)c1ccc(Cl)cc1 (stereo not shown) [1,2-bis(4-chlorophenyl)-1-(4-pyridyl)ethanol] | 185 | –
CCCSC(c1ccc(Cl)cc1)(c1ccc(Cl)cc1)c1cccnc1 [3-[α-(4-chlorophenyl)-α-(n-propylthio)-4-chlorobenzyl]pyridine] | 1750 | –
Clc1ccc(Cc2ccncc2)cc1 [4-(4-chlorobenzyl)pyridine] | 550 | –
O=[N+]([O-])c1ccc(Cc2ccncc2)cc1 [4-(4-nitrobenzyl)pyridine] | 980 | –
Clc1ccccc1C(c1ccncc1)c1ccccc1Cl [4-bis(2-chlorophenyl)methylpyridine] | 490 | –
OC(Cc1ccc(Cl)cc1Cl)(Cc1ccc(Cl)cc1Cl)c1cccnc1 [α,α-bis(2,4-dichlorobenzyl)-3-pyridinemethanol hydrochloride] | 1850 | –
OC(c1cccnc1)(c1ccc(Cl)cc1Cl)c1ccc(Cl)cc1Cl [α,α-bis(2,4-dichlorophenyl)-3-pyridinemethanol hydrochloride] | 4000 | –
OC(c1cccnc1)(c1cccc(Br)c1)c1cccc(Br)c1 [α,α-bis(3-bromophenyl)-3-pyridinemethanol] | 2200 | –
OC(Cc1ccc(Cl)cc1)(Cc1ccc(Cl)cc1)c1cccnc1 [α,α-bis(4-chlorobenzyl)-3-pyridinemethanol] | > 5000 | –
OC(c1ccc(Cl)cc1)(c1ccc(Cl)cc1)c1cccnc1 [α,α-bis(4-chlorophenyl)-3-pyridinemethanol] | – | Mean Tumor Area, Finish ([1]; after 5 weeks, control 1140): 433 mm^2; Mean Tumor Area, Start ([1]; start of 5-week test, control 73.9): 108.8 mm^2; Mean Uterine Weight ([2]; 30 ppm in feed (approx. 3 mg/kg/day), 4 animals, p < 0.05): 127.25 mg; Mean Uterine Weight ([2]; 300 ppm in feed (approx. 30 mg/kg/day), 5 animals, p < 0.05): 87.80 mg; Mean Steroid Concentration, estriol [2, 3]: 0.70 femtomoles per milligram of protein; Mean Steroid Concentration, estradiol [2, 3]: 1.04 femtomoles per milligram of protein; Mean Steroid Concentration, estriol ([2]; 300 ppm in feed (approx. 30 mg/kg/day)): 0.39 femtomoles per milligram of protein; Mean Steroid Concentration, estradiol ([2]; 300 ppm in feed (approx. 30 mg/kg/day), p < 0.05): 0.36 femtomoles per milligram of protein
CN(C)c1ccc(C(O)(c2ccncc2)c2ccc(N(C)C)cc2)cc1 [α,α-bis[4-(dimethylamino)phenyl]-4-pyridinemethanol] | 3400 | –
OC(Cc1ccccc1)(Cc1ccccc1)c1cccnc1 [α,α-dibenzyl-3-pyridinemethanol] | 2850 | –
OC(Cc1ccc(Cl)cc1Cl)(c1ccc(Cl)cc1)c1cccnc1 (stereo not drawn) [α-(2,4-dichlorobenzyl)-α-(4-chlorophenyl)-3-pyridinemethanol hydrochloride] | > 5000 | –
OC(Cc1ccc(Cl)cc1Cl)(c1ccc(Cl)cc1)c1cccnc1 (stereo not drawn) [α-(2,4-dichlorobenzyl)-α-(4-chlorophenyl)-3-pyridinemethanol] | 3200 | –
OC(c1ccccc1)(c1cccnc1)c1ccc(F)cc1F (stereo not drawn) [α-(2,4-difluorophenyl)-α-phenyl-3-pyridinemethanol] | 2050 | –
OC(Cc1ccc(Cl)c(Cl)c1)(c1ccc(Cl)cc1)c1cccnc1 (stereo not drawn) [α-(3,4-dichlorobenzyl)-α-(4-chlorophenyl)-3-pyridinemethanol] | 3150 | –
OC(c1ccc(Cl)cc1)c1cccnc1 (stereo not drawn) [α-(3-pyridyl)-4-chlorobenzyl alcohol] | 2400 | –
OC(Cc1ccc(Cl)cc1)(Cc1ccc(Cl)cc1Cl)c1cccnc1 (stereo not drawn) [α-(4-chlorobenzyl)-α-(2,4-dichlorobenzyl)-3-pyridinemethanol] | 2400 | –
OC(Cc1ccc(Cl)cc1)(c1cccnc1)c1cccc(Cl)c1 (stereo not drawn) [α-(4-chlorobenzyl)-α-(3-chlorophenyl)-3-pyridinemethanol] | 3200 | –
OC(Cc1ccc(Cl)cc1)(c1ccc(Cl)cc1)c1cccnc1 (stereo not drawn) [α-(4-chlorobenzyl)-α-(4-chlorophenyl)-3-pyridinemethanol] | 2900 | –
Cc1cncc(C(O)(c2ccccc2)c2ccc(Cl)cc2)c1 (stereo not drawn) [α-(4-chlorophenyl)-5-methyl-α-phenyl-3-pyridinemethanol] | 4100 | –
CCCN(CCC)C(c1ccc(Cl)cc1)c1cccnc1 (stereo not drawn) [α-(4-chlorophenyl)-N,N--di(n-propyl)-3-pyridylmethylamine] | 150 | –
OC(c1ccc(Cl)cc1)(c1cccnc1)c1ccc2c(c1)OCO2 (stereo not drawn) [α-(4-chlorophenyl)-α-(3,4-methylenedioxyphenyl)-3-pyridinemethanol] | 500 | –
Cc1ccc(C(O)(c2ccccc2)c2cccnc2)cc1 (stereo not drawn) [α-(4-methylphenyl)-α-phenyl-3-pyridinemethanol] | 2400 | –
